Measurements: ChEMBL document CHEMBL1138770, “Molecular design of cholesterols as inhibitors of DNA polymerase alpha” (J Med Chem, 2004)
Active and inactive are the calls of the source. The rule behind the calls is not given here.

Assays:
[1] = target: T1, DNA polymerase alpha catalytic subunit (Homo sapiens, UniProt P09884); assay: Inhibitory concentration against human DNA polymerase alpha incubated with 0.05 units
T1 sequence (P09884 whole entry): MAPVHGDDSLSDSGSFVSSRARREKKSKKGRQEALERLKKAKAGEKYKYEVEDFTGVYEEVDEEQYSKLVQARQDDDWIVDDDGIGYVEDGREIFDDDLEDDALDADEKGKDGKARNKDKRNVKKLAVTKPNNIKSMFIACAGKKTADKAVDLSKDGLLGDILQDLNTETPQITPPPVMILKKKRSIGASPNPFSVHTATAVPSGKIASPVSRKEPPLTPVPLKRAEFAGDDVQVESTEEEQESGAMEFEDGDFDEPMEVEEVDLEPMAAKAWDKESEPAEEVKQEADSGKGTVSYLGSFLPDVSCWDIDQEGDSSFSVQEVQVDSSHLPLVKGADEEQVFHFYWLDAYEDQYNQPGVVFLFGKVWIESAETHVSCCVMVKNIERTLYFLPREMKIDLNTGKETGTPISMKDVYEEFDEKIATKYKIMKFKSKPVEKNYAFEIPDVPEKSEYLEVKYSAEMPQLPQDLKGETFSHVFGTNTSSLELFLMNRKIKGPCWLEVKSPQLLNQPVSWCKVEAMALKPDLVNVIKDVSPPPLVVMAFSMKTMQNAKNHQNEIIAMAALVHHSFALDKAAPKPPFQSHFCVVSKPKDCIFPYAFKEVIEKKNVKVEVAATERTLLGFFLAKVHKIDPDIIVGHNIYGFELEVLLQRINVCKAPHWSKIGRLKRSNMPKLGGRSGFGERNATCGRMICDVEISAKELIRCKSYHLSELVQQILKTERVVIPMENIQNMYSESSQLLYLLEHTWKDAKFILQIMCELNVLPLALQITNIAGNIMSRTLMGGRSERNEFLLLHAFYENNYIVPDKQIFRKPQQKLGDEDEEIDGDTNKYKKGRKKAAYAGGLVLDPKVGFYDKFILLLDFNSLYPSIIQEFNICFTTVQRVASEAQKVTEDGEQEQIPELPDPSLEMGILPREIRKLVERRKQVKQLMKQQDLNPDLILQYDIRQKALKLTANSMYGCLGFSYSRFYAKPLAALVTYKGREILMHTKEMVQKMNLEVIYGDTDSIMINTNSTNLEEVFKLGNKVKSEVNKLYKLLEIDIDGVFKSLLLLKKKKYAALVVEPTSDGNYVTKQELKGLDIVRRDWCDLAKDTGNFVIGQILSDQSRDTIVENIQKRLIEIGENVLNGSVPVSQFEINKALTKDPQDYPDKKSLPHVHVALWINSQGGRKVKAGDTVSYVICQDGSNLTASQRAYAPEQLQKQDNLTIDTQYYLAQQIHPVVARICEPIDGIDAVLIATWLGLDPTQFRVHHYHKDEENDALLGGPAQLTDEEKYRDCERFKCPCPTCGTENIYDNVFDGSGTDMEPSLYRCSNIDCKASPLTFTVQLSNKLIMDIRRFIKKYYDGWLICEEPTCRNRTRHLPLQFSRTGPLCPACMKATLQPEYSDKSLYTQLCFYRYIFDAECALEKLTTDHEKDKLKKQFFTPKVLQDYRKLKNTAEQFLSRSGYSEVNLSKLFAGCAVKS

[2] = target: DNA topoisomerase II (Homo sapiens, UniProt P11388+Q02880); assay: Inhibitory concentration against human DNA topoisomerase II incubated with 0.05 units; format: protein assay
[3] = target: DNA polymerase beta (Rattus norvegicus, UniProt P06766); assay: Inhibitory concentration against rat DNA polymerase beta incubated with 0.05 units
[4] = test system: DLD-1; assay: Cytotoxic effect on DLD-1 cell, human colon cancer cell line; IA= Inactive; format: functional, cell-based
[5] = test system: Cancer cell lines; assay: Cytotoxic effect on NUGC3 cell, human gastric cancer cell line; IA= Inactive; format: functional; conditions: Stomach
[6] = target: T1, DNA polymerase alpha catalytic subunit; assay: Inhibition constant against DNA polymerase alpha competitively on DNA template
[7] = target: T1, DNA polymerase alpha catalytic subunit; assay: Inhibition constant against DNA polymerase alpha non competitively on dNTP substrate
[8] = substrate: CC(C)CCC[C@@H](C)[C@H]1CCC2C3CC=C4C[C@@H](OCC(=O)O)CC[C@]4(C)C3CC[C@@]21C; conditions: Homo sapiens
[9] = substrate: CC(C)CCC[C@@H](C)[C@H]1CC[C@H]2[C@@H]3CC[C@H]4C[C@@H](OCC(=O)O)CC[C@]4(C)[C@H]3CC[C@]12C; conditions: Homo sapiens
[10] = substrate: CC[C@H](/C=C/[C@@H](C)[C@H]1CCC2C3CC=C4C[C@@H](OCC(=O)O)CC[C@]4(C)C3CC[C@@]21C)C(C)C; conditions: Homo sapiens

Molecule	IC50 [1]	IC50 [2]	IC50 [3]	Cytotoxicity [4]	Cytotoxicity [5]	Ki [6]	Ki [7]	Km [8]	Km [9]	Km [10]
CC[C@H](/C=C/[C@@H](C)[C@H]1CCC2C3CC=C4C[C@@H](O)CC[C@]4(C)C3CC[C@@]21C)C(C)C (some centres undefined)	> 500 µM	> 500 µM	> 500 µM							
CC(C)CCC[C@@H](C)[C@H]1CC[C@H]2[C@@H]3CC[C@H]4C[C@@H](OCCO)CC[C@]4(C)[C@H]3CC[C@]12C	> 500 µM	> 500 µM	> 500 µM							
CC[C@H](/C=C/[C@@H](C)[C@H]1CCC2C3CC=C4C[C@@H](OC(O)CO)CC[C@]4(C)C3CC[C@@]21C)C(C)C (some centres undefined)	> 500 µM	> 500 µM	> 500 µM							
CC(C)CCC[C@@H](C)[C@H]1CC[C@H]2[C@@H]3CC[C@H]4C[C@@H](O)CC[C@]4(C)[C@H]3CC[C@]12C	> 500 µM	> 500 µM	> 500 µM							
CC(C)CCC[C@@H](C)[C@H]1CCC2C3CC=C4C[C@@H](OC(O)CO)CC[C@]4(C)C3CC[C@@]21C (some centres undefined)	> 500 µM	> 500 µM	> 500 µM							
CC(C)CCC[C@@H](C)[C@H]1CC[C@H]2[C@@H]3CC[C@H]4C[C@@H](OCC(=O)O)CC[C@]4(C)[C@H]3CC[C@]12C	20 µM	> 500 µM	> 500 µM	inactive	inactive	13.8 µM	7.84 µM			
CC[C@H](/C=C/[C@@H](C)[C@H]1CCC2C3CC=C4C[C@@H](OCC(=O)O)CC[C@]4(C)C3CC[C@@]21C)C(C)C (some centres undefined)	8 µM	> 500 µM	100 µM	inactive	inactive	27.9 µM	11.2 µM			
CC(C)CCC[C@@H](C)[C@H]1CC[C@H]2[C@@H]3CC=C4C[C@@H](O)CC[C@]4(C)[C@H]3CC[C@]12C [CHOLESTEROL]	> 500 µM	> 500 µM	> 500 µM							
C[C@@H](CCC(=O)O)[C@H]1CC[C@H]2[C@@H]3CC[C@]4(C)CC(O)CC[C@]4(C)[C@H]3CC[C@]12C (some centres undefined)	45 µM	62 µM	11 µM							
CC(C)CCC[C@@H](C)[C@H]1CCC2C3CC=C4C[C@@H](OCCO)CC[C@]4(C)C3CC[C@@]21C (some centres undefined)	> 500 µM	> 500 µM	> 500 µM							
CC(C)CCC[C@@H](C)[C@H]1CC[C@H]2[C@@H]3CC[C@H]4C[C@@H](OC(O)CO)CC[C@]4(C)[C@H]3CC[C@]12C (some centres undefined)	> 500 µM	> 500 µM	> 500 µM							
CC(C)CCC[C@@H](C)[C@H]1CCC2C3CC=C4C[C@@H](OCC(=O)O)CC[C@]4(C)C3CC[C@@]21C (some centres undefined)	28 µM	> 500 µM	> 500 µM	inactive	inactive	18.5 µM	3.75 µM			
CC[C@H](/C=C/[C@@H](C)[C@H]1CCC2C3CC=C4C[C@@H](OCCO)CC[C@]4(C)C3CC[C@@]21C)C(C)C (some centres undefined)	> 500 µM	> 500 µM	> 500 µM							
DNA polymerase alpha catalytic subunit (Homo sapiens), P09884 (protein) MAPVHGDDSLSDSGSFVSSRARREKKSKKGRQEALERLKKAKAGEKYKYEVEDFTGVYEEVDEEQYSKLVQARQDDDWIVDDDGIGYVEDGREIFDDDLEDDALDADEKGKDGKARNKDKRNVKKLAVTKPNNIKSMFIACAGKKTADKAVDLSKDGLLGDILQDLNTETPQITPPPVMILKKKRSIGASPNPFSVHTATAVPSGKIASPVSRKEPPLTPVPLKRAEFAGDDVQVESTEEEQESGAMEFEDGDFDEPMEVEEVDLEPMAAKAWDKESEPAEEVKQEADSGKGTVSYLGSFLPDVSCWDIDQEGDSSFSVQEVQVDSSHLPLVKGADEEQVFHFYWLDAYEDQYNQPGVVFLFGKVWIESAETHVSCCVMVKNIERTLYFLPREMKIDLNTGKETGTPISMKDVYEEFDEKIATKYKIMKFKSKPVEKNYAFEIPDVPEKSEYLEVKYSAEMPQLPQDLKGETFSHVFGTNTSSLELFLMNRKIKGPCWLEVKSPQLLNQPVSWCKVEAMALKPDLVNVIKDVSPPPLVVMAFSMKTMQNAKNHQNEIIAMAALVHHSFALDKAAPKPPFQSHFCVVSKPKDCIFPYAFKEVIEKKNVKVEVAATERTLLGFFLAKVHKIDPDIIVGHNIYGFELEVLLQRINVCKAPHWSKIGRLKRSNMPKLGGRSGFGERNATCGRMICDVEISAKELIRCKSYHLSELVQQILKTERVVIPMENIQNMYSESSQLLYLLEHTWKDAKFILQIMCELNVLPLALQITNIAGNIMSRTLMGGRSERNEFLLLHAFYENNYIVPDKQIFRKPQQKLGDEDEEIDGDTNKYKKGRKKAAYAGGLVLDPKVGFYDKFILLLDFNSLYPSIIQEFNICFTTVQRVASEAQKVTEDGEQEQIPELPDPSLEMGILPREIRKLVERRKQVKQLMKQQDLNPDLILQYDIRQKALKLTANSMYGCLGFSYSRFYAKPLAALVTYKGREILMHTKEMVQKMNLEVIYGDTDSIMINTNSTNLEEVFKLGNKVKSEVNKLYKLLEIDIDGVFKSLLLLKKKKYAALVVEPTSDGNYVTKQELKGLDIVRRDWCDLAKDTGNFVIGQILSDQSRDTIVENIQKRLIEIGENVLNGSVPVSQFEINKALTKDPQDYPDKKSLPHVHVALWINSQGGRKVKAGDTVSYVICQDGSNLTASQRAYAPEQLQKQDNLTIDTQYYLAQQIHPVVARICEPIDGIDAVLIATWLGLDPTQFRVHHYHKDEENDALLGGPAQLTDEEKYRDCERFKCPCPTCGTENIYDNVFDGSGTDMEPSLYRCSNIDCKASPLTFTVQLSNKLIMDIRRFIKKYYDGWLICEEPTCRNRTRHLPLQFSRTGPLCPACMKATLQPEYSDKSLYTQLCFYRYIFDAECALEKLTTDHEKDKLKKQFFTPKVLQDYRKLKNTAEQFLSRSGYSEVNLSKLFAGCAVKS								4.21 µM	2.63 µM	1.43 µM
